Test results published in patent US20260097036A1 (Kadmon Corporation, LLC, priority 2022, published 2026).
Read-outs that look alike come from different tables or passages of the source.

Assays:
[1] = solubility and natural pH of the API; assay type: physicochemical
[2] = excipient compatibility testing of dry binary mixes; assay type: physicochemical; details: binary mixes 1:1; 2-8° C. and 40° C./75% RH, over a 14-day period
Protocol: The dry binary mixes were analyzed for appearance and related substances after storage at 2-8° C. (control storage condition) and 40° C./75% RH for 14 days and 28 days. The binary mixes were also tested for visual appearance at initial mixing.

[3] = stability study with pH modifiers, XRPD of isolated solids (samples 2.1-2.6); assay type: physicochemical; details: T = 28 days 40° C./75% RH
Protocol: Samples were prepared containing sodium benzoate as a preservative and with the pH adjusted with either citric acid or tartaric acid which were compared with samples having no pH modifier.
The above samples were prepared for XRPD analysis in three steps: solids were isolated by centrifugation at 3000 rpm for 20 minutes; the supernatant was decanted; and the samples were dried under vacuum at ambient temperature for 18-24 hours overnight. XRPD data of the solid samples was obtained.

[4] = Part 2 relative bioavailability and food effect, plasma PK; assay type: in vivo, human; details: for Tlag / AUC % extrap / Lambda-z / half-life / Tmax / AUC(0-inf) / AUC(0-t) / Cmax / Vd/F: plasma; for half-life / Tmax / AUC(0-inf) / AUC(0-t) / Cmax / Vd/F: male, human, 200 mg; for Cmax: read-out: Cmax; for Vd/F: read-out: Vz/F
Protocol: Subjects underwent preliminary screening procedures to determine their eligibility for Part 2 of the study at the screening visit (Day −28 to Day −2 of Part 2). Subjects who took part in Part 1 of the study were permitted to take part in Part 2.
Three different regimens (G, H, and I), were used over the three periods. In Regimen G, belumosudil was administered in Tablet form (reference); and in Regimens H and I, belumosudil was administered in the form of Oral Liquid Formulation.
In Period 1, Day 1: subjects were randomized prior to administration of the first dose of IMP to 1 of 6 treatment sequences (GHI, HIG, IGH, IHG, GIH and HGI) with 3 subjects assigned to each treatment sequence. On Day 1 of each study period (periods 1, 2 and 3), subjects received the regimens in Table 36:
Regimen H was administered to subjects as a flavorless low sucralose liquid formulation in a fasted state, and Regimens G and I were administered to subjects in a fed state. Regimen G was administered with a total of 240 mL of water. For Regimens H and I, immediately after IMP administration, subjects consumed water to a total volume of 240 mL (including the dosing volume).
Subjects received a single dose of IMP in the morning of Day 1 following an overnight fast of a minimum of 10 h (Regimen H, fasted state) or following a standard breakfast (Regimens G and I, fed state). Blood samples were collected at regular intervals for PK analysis. Following administration of Regimen H, subjects completed a written taste/palatability questionnaire individually and privately.
Subjects were resident in the clinical unit for 10 consecutive nights that covered all 3 treatment periods. All subjects remained on site until 72 h post-final dose for safety and PK assessments. There was a minimum washout of 3 days between each IMP administration. To ensure the ongoing wellbeing of the subjects, a follow-up phone call took place 3 to 7 days post-final dose. If a subject reported any AEs after discharge which represented a cause for concern, they were required to attend the clinical unit for a follow-up assessment. This would have been an unscheduled visit.

pro-fibrotic signaling = details: in vitro; cited from earlier work
animal models of cGVHD = details: in vivo; cited from earlier work
[5] = cited from earlier work
[6] = po, Regimen G: 200 mg Tablet, Fed, single oral dose, geometric mean (CV%)
[7] = po, Regimen H: 200 mg Liquid Formulation, Fasted, single oral dose, geometric mean (CV%)
[8] = po, Regimen I: 200 mg Liquid Formulation, Fed, single oral dose, geometric mean (CV%)

With `CC(C)NC(=O)COc1cccc(-c2nc(Nc3ccc4[nH]ncc4c3)c3ccccc3n2)c1` [Belumosudil, 2-{3-[4-(1H-indazol-5-ylamino)-2-quinazolinyl]phenoxy}-N-(propan-2-yl)acetamide, reference compound] the “natural pH of API in water” value ([1]; API in water) was about 3 pH, the solubility ([1]; at pH 2.0-3.0) was “soluble” and the “compatibility with hydrochloric acid and maleic acid” value [2] was “not compatible”. The “XRPD of isolated solids (form stability)” value [3] was “stable in the formulation”, the Tlag ([4]; Regimen G: 200 mg Tablet, Fed, single oral dose, healthy male volunteers, median (range)) was 0.500 h and the AUC % extrap ([4]; Regimen G: 200 mg Tablet, Fed, single oral dose, geometric mean (CV%)) was 2.601 (44.8%). The Lambda-z ([4]; Regimen G: 200 mg Tablet, Fed, single oral dose, geometric mean (CV%), individual values where n <= 2) was 0.074 (57.7%) l/h, the Tlag ([4]; Regimen H: 200 mg Liquid Formulation, Fasted, single oral dose, healthy male volunteers, median (range)) was 0.00 h and the AUC % extrap ([4]; Regimen H: 200 mg Liquid Formulation, Fasted, single oral dose, geometric mean (CV%)) was 2.785 (50.4%). The Lambda-z ([4]; Regimen H: 200 mg Liquid Formulation, Fasted, single oral dose, geometric mean (CV%), individual values where n <= 2) was 0.073 (43.5%) l/h, the Tlag ([4]; Regimen I: 200 mg Liquid Formulation, Fed, single oral dose, healthy male volunteers, median (range)) was 0.00 h and the AUC % extrap ([4]; Regimen I: 200 mg Liquid Formulation, Fed, single oral dose, geometric mean (CV%)) was 1.918 (34.9%). For the same compound, the Lambda-z ([4]; Regimen I: 200 mg Liquid Formulation, Fed, single oral dose, geometric mean (CV%), individual values where n <= 2) was 0.102 (49.2%) l/h, the “peak (Cmax) and total exposure (AUC), liquid formulation vs tablet” value ([4]; both in the fed state, GMR comparison) was “largely similar to that of the tablet reference” and the “time from which concentrations were evident” value ([4]; liquid formulation, fasted and fed (Regimens H and I)) was 0.5 h. The half-life ([4]; oral, Regimen G, tablet fed, read-out: elimination half-lives (range)) was 4.84 to 33 h, the half-life ([4]; oral, Regimen H, liquid formulation fasted, read-out: elimination half-lives (range)) was 5.36 to 23.8 h and the half-life ([4]; oral, Regimen I, liquid formulation fed, read-out: elimination half-lives (range)) was 2.38 to 15.7 h. For the same compound, the half-life ([4]; oral, Regimens G, H, I, read-out: geometric mean half-life (range over regimens)) was 6.79 to 9.5 h, the Tmax ([4]; po, Regimen G: 200 mg Tablet, Fed, single oral dose, healthy male volunteers, median (range), read-out: Tmax) was 3 h and the AUC(0-inf) [4, 6] was 10200 ng·h/mL. For the same compound, the half-life ([4]; po, Regimen G: 200 mg Tablet, Fed, single oral dose, geometric mean (CV%), individual values where n <= 2, read-out: T1/2 (converted)) was 9.39 h, the AUC(0-t) ([4]; po, Regimen G: 200 mg Tablet, Fed, single oral dose, geometric mean (CV%), read-out: AUC (0-24)) was 9310 ng·h/mL and the AUC(0-t) ([4]; po, Regimen G: 200 mg Tablet, Fed, single oral dose, geometric mean (CV%), read-out: AUC (0-last)) was 9720 ng·h/mL. For the same compound, the Cmax [4, 6] was 1930 ng/mL, the Vd/F [4, 6] was 265 L and the Tmax ([4]; po, Regimen H: 200 mg Liquid Formulation, Fasted, single oral dose, healthy male volunteers, median (range), read-out: Tmax) was 1.5 h. The AUC(0-inf) [4, 7] was 8430 ng·h/mL, the half-life ([4]; po, Regimen H: 200 mg Liquid Formulation, Fasted, single oral dose, geometric mean (CV%), individual values where n <= 2, read-out: T1/2 (converted)) was 9.5 h and the AUC(0-t) ([4]; po, Regimen H: 200 mg Liquid Formulation, Fasted, single oral dose, geometric mean (CV%), read-out: AUC (0-24)) was 7620 ng·h/mL. It also gave an AUC(0-t) ([4]; po, Regimen H: 200 mg Liquid Formulation, Fasted, single oral dose, geometric mean (CV%), read-out: AUC (0-last)) of 8010 ng·h/mL, a Cmax [4, 7] of 1550 ng/mL and a Vd/F [4, 7] of 325 L. It also gave an AUC(0-inf) [4, 8] of 9500 ng·h/mL, a half-life ([4]; po, Regimen I: 200 mg Liquid Formulation, Fed, single oral dose, geometric mean (CV%), individual values where n <= 2, read-out: T1/2 (converted)) of 6.79 h and an AUC(0-t) ([4]; po, Regimen I: 200 mg Liquid Formulation, Fed, single oral dose, geometric mean (CV%), read-out: AUC (0-24)) of 9340 ng·h/mL. For the same compound, the AUC(0-t) ([4]; po, Regimen I: 200 mg Liquid Formulation, Fed, single oral dose, geometric mean (CV%), read-out: AUC (0-last)) was 9570 ng·h/mL, the Cmax [4, 8] was 1790 ng/mL and the Vd/F [4, 8] was 206 L. The Tmax ([4]; po, single oral 200 mg as liquid formulation, fasted state, read-out: median Tmax) was 1.5 h, the Tmax ([4]; po, single oral 200 mg as tablet reference, fed, read-out: median Tmax) was 3 h and the aberrant pro-fibrotic signaling (pro-fibrotic signaling) was “inhibited aberrant pro-fibrotic signaling”. The “activity in animal models of cGVHD” value (animal models of cGVHD) was “demonstrated activity” and the solubility in water [5] was “practically insoluble”.
